In ChEMBL document CHEMBL1145603, “Evaluation of antiangiogenic activity of azumamides by the in vitro vascular organization model using mouse induced pluripotent stem (iPS) cells” (Bioorg Med Chem Lett, 2008):

Key:
[1] = tested on: HeLa; assay: Induction of p21 expression in human HeLa cells after 24 hrs; format: functional
[2] = biological target: Histone deacetylase 1 (Homo sapiens, UniProt Q13547); assay: Inhibition of human HDAC1 expressed in 293T cells; format: cell-based
[3] = biological target: Histone deacetylase 4 (Homo sapiens, UniProt P56524); assay: Inhibition of human HDAC4 expressed in 293T cells; format: cell-based
[4] = biological target: T1, Protein deacetylase HDAC6 (Homo sapiens, UniProt Q9UBN7); assay: Inhibition of human HDAC6 expressed in 293T cells; format: cell-based
T1 sequence (Q9UBN7 whole entry): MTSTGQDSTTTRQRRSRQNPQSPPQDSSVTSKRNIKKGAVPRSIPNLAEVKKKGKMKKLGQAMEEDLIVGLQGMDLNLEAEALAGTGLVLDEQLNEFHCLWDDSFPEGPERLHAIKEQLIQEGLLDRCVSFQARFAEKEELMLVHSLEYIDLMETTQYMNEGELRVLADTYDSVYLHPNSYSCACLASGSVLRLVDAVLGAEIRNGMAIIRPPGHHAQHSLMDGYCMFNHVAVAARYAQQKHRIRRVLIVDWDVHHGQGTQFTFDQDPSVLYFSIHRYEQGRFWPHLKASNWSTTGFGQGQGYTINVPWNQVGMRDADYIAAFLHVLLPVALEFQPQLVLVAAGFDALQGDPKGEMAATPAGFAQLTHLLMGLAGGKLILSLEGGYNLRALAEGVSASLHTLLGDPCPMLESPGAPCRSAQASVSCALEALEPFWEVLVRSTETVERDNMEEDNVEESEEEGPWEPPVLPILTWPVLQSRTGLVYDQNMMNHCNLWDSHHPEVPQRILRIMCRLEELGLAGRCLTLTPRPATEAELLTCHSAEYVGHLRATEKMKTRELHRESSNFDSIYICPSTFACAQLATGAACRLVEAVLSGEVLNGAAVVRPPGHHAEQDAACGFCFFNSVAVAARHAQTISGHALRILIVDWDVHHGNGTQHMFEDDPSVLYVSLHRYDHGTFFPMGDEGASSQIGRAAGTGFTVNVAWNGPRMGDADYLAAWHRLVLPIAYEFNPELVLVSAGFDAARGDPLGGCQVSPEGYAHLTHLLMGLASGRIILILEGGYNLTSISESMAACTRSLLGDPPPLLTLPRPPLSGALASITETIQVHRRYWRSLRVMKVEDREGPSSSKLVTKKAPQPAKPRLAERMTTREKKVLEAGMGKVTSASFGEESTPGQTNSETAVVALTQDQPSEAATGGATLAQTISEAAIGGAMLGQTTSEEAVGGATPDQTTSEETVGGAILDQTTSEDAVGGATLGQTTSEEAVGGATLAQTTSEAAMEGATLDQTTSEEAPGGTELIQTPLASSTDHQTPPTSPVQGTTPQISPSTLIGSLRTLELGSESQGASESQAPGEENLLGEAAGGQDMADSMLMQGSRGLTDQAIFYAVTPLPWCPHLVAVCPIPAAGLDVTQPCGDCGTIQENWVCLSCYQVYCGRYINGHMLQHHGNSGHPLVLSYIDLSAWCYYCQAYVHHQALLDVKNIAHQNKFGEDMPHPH

[5] = organism: Mus musculus; assay: Antiangiogenic activity in mouse induced pluripotent stem cells; format: functional

Chain of Histone deacetylase 1 (Q13547 whole entry): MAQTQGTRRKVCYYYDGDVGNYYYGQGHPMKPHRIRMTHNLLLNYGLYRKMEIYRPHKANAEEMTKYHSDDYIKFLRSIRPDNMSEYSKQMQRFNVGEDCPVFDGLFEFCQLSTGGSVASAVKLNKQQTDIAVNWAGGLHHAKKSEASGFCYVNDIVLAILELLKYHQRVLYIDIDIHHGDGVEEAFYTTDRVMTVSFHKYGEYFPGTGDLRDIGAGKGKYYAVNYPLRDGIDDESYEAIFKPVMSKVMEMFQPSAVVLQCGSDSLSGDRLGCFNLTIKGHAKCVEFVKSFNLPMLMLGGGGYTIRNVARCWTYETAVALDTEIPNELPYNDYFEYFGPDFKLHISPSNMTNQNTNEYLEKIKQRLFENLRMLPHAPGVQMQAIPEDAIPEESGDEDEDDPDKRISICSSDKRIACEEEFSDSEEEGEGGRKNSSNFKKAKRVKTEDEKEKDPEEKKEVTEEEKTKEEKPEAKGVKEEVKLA
Chain of Histone deacetylase 4 (P56524 whole entry): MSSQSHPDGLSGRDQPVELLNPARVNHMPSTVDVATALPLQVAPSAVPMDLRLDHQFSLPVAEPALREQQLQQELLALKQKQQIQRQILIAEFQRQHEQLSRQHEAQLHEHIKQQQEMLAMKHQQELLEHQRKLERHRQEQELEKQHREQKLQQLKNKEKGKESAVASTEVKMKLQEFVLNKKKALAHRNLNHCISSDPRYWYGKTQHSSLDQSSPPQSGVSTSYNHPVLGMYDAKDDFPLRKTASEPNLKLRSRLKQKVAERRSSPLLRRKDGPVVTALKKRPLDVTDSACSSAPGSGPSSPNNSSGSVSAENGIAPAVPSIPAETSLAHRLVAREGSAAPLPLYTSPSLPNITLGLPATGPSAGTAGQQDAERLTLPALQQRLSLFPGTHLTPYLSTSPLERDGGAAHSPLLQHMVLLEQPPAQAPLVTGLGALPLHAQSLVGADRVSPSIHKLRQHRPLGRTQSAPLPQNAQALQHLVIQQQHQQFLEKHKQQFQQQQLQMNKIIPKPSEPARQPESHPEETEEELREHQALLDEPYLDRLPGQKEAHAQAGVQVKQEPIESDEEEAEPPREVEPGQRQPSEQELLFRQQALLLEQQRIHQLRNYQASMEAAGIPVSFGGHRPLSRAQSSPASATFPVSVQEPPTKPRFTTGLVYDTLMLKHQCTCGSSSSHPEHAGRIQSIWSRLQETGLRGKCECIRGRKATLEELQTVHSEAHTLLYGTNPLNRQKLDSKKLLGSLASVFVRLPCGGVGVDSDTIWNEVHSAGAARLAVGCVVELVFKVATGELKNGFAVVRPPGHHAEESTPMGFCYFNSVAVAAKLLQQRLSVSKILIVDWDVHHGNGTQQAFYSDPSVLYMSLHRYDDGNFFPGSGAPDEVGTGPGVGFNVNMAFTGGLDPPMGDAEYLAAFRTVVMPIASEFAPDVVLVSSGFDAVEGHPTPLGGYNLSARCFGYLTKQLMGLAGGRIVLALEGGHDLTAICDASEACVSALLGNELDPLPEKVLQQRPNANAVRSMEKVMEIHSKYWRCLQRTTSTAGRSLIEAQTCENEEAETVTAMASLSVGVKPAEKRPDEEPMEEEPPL

## CC(C)[C@H]1NC(=O)[C@@H](C)[C@@H](C/C=C\CCC(N)=O)NC(=O)[C@@H](Cc2ccccc2)NC(=O)[C@@H](C)NC1=O [AZUMAMIDE A]
[1]
  EC1000: >25 µM
[2]
  IC50: > 50 µM
[3]
  IC50: > 50 µM
[4]
  IC50: > 50 µM

## CC(C)[C@H]1NC(=O)[C@@H](C)[C@@H](C/C=C\CCC(N)=O)NC(=O)[C@@H](Cc2ccc(O)cc2)NC(=O)[C@@H](C)NC1=O [AZUMAMIDE B]
[1]
  EC1000: >25 µM
[2]
  IC50: 1.83 µM
[3]
  IC50: 3.66 µM
[4]
  IC50: > 50 µM

## CC(C)[C@H]1NC(=O)[C@@H](C)[C@@H](C/C=C\CCC(=O)O)NC(=O)[C@@H](Cc2ccc(O)cc2)NC(=O)[C@@H](C)NC1=O [AZUMAMIDE C]
[1]
  EC1000: >25 µM
[2]
  IC50: 1.17 µM
[3]
  IC50: 3.16 µM
[4]
  IC50: > 50 µM

## C[C@@H]1C(=O)N[C@H](C)C(=O)N[C@H](C)C(=O)N[C@H](Cc2ccccc2)C(=O)N[C@@H]1C/C=C\CCC(N)=O [AZUMAMIDE D]
[1]
  EC1000: >25 µM
[2]
  IC50: > 50 µM
[3]
  IC50: > 50 µM
[4]
  IC50: > 50 µM

## CC(C)[C@H]1NC(=O)[C@@H](C)[C@@H](C/C=C\CCC(=O)O)NC(=O)[C@@H](Cc2ccccc2)NC(=O)[C@@H](C)NC1=O [AZUMAMIDE E]
[1]
  EC1000: 17 µM
[5]
  Activity: Dose-dependent effect
[3]
  IC50: 2.28 µM
[4]
  IC50: > 50 µM

## CC(/C=C/C(=O)NO)=C\[C@@H](C)C(=O)c1ccc(N(C)C)cc1 [TRICHOSTATIN]
[1]
  EC1000: 0.0115 µM
